Tests used:
duodenum = test: Intestinal morphology (villus length, crypt depth) in the duodenum; type: in vivo, Ross 308 broiler chickens; conditions: 21 days
Excerpt: The study was undertaken following the guidelines of the ethics committee of the Faculty of Veterinary Medicine and Bioscience Engineering, Ghent University, in accordance with the EU Directive 2010/63/EU. […] They were allotted into 4 groups, with three replicate pens per group each housing 8 chickens. The animals were not vaccinated. Water and commercial starter feed (day 1-12, FARM 1 Mash, Country's Best, […], Belgium) or grower (day 13-21, FARM 2 mash, Country's Best, […], Belgium) were provided ad libitum. […] At day 21, 4 birds per pen were weighted then euthanized by sodium pentobarbital injection for sampling. […] Additionally, ileal and caecal content samples were collected and stored at -20°C for berberine and berberine-derived metabolite quantification. […] 24 h formalin-fixed duodenal intestinal tissue segments were embedded in paraffin wax and sectioned at 5 μm, followed by haematoxylin and eosin staining. Villus length and crypt depth were assessed using a PC-based image analysis system (Leica Application Suite V4, LAS V4.; Leica, Diegem Belgium).

Caco-2 cells = test: Cell viability assay (neutral red uptake), Caco-2; type: cell-based, human; conditions: 0.1 µg berberine/mL medium
Procedure: (§1) Caco-2 cells (human intestinal epithelial cells) were cultured in MEM (Gibco, Paisley, United Kingdom) supplemented with 10% Fetal Bovine Serum (FBS), 1% L-glutamine (Gibco), 1% MEM NEAA (Gibco) and 1% penicillin/streptomycin (P/S) (Gibco). T84 cells (human intestinal epithelial cells) were cultured in 1:1 DMEM/F12 (Gibco) supplemented with 10% FBS, 1% L-glutamine and 1% P/S (37°C, 5% CO2). The neutral red uptake assay was employed to evaluate the potential cytotoxicity of berberine ([Repetto et al., 2008]). Briefly, Caco-2 and T84 were seeded at 2 × 10^5 cells/well and 5 × 10^4 cells/well respectively in 96-well plates (Greiner Bio-one, Frickenhausen, Germany) and cultivated for 24 h in antibiotic-free medium (treatment medium) for attachment. […] A 10-fold dilution of sodium dodecyl sulfate (Sigma-Aldrich), ranging from 10 mg/mL to 10^−6 mg/mL was used a positive control. Cells were washed with 200 µL pre-warmed HBSS(+) (Gibco) and then treated with 150 µL of Neutral Red medium, consisting of 1:80 Neutral Red solution 0.33% (Sigma-Aldrich)/treatment medium for 3 h. Cells were washed in 200 µL HBSS(+) and treated with 100 µL of Neutral Red Desorb solution, consisting of 1% glacial acetic acid (Merck, Darmstadt, Germany), 50% ethanol (95%, Chem-Lab, Zedelgem, Belgium) and 49% deionized water.

T84 cells = test: Cell viability assay (neutral red uptake), T84; type: cell-based, human; conditions: 0.1 µg berberine/mL medium
Procedure: as §1

[1] = test system: Blautia spp., A. butyraticus, E. limosum; test: Growth of bacteria in presence of increasing concentrations of berberine; type: cell-based; conditions: 10 μg/mL berberine, M2GSC, anaerobic
Excerpt: Samples were collected and processed as described before.
Supplementary Figure S1 – Growth of bacteria in presence of increasing concentrations of berberine in M2GSC medium (μg/mL) under anaerobic conditions. Strains were further tested for their ability to metabolize berberine (Figure 14). Strains were selected according to OTUs which relative abundance was positively correlated to berberrubine or thalifendine levels, including Blautia spp. and A. butyraticus. E. limosum was included as it was expected to demethylate berberine due to previous literature (Possemiers et al., 2008; Rich et al., 2022). Overnight cultures were 1:1000 diluted in M2GSC medium supplemented with 0, 1, 10 or 100 µg/mL berberine and grown for 24 hours under anaerobic conditions. Absorbance data at 600 nm are expressed as the mean ± standard deviation (n = 3). *: p < 0.05; ***: p < 0.001.

caecal microbiota = test: SCFA quantification (GC-FID) in caecal contents of chickens; type: in vivo, Ross 308 broiler chickens; conditions: high dose (1 g berberine/kg feed), 21 days; p = 0.045
Procedure: 250 mg caecal content derived from the in vivo trial were weighed and diluted 1:20 for SCFA analysis. Acetate, propionate and butyrate were quantified using the GC-FID method described by ([De […] et al., 2010]). This method involves the extraction of SCFA from samples with diethyl ether after the addition of 2-methyl hexanoic acid as an internal standard.

jejunal microbiota = test: 16S rRNA gene sequencing, microbiota composition in the jejunum; type: in vivo, Ross 308 broiler chickens
[2] = 0.1 g berberine/kg feed vs normal diet, 21 days, LinDA-normalized abundance
[3] = 0.1 g berberine/kg feed, 21 days
[4] = 0.5 g berberine/kg feed vs normal diet, 21 days, LinDA-normalized abundance
[5] = 0.5 g berberine/kg feed, 21 days
[6] = 1 g berberine/kg feed vs normal diet, 21 days, LinDA-normalized abundance

COc1ccc2cc3[n+](cc2c1OC)CCc1cc2c(cc1-3)OCO2 [Berberine, Berberine chloride]
Crypt depth (duodenum; 0.1 g berberine/kg feed): 114 ± 21 µm | Villus length (duodenum; 0.1 g berberine/kg feed): 1,678 ± 101 µm | Villus to crypt ratio (duodenum; 0.1 g berberine/kg feed): 15.30 ± 2.50 | Crypt depth (duodenum; 0.5 g berberine/kg feed): 104 ± 15 µm | Villus length (duodenum; 0.5 g berberine/kg feed): 1,815 ± 148 µm | Villus to crypt ratio (duodenum; 0.5 g berberine/kg feed): 17.98 ± 2.53 | Crypt depth (duodenum; 1 g berberine/kg feed): 103 ± 17 µm | Villus length (duodenum; 1 g berberine/kg feed): 1,820 ± 150 µm | Villus to crypt ratio (duodenum; 1 g berberine/kg feed): 18.31 ± 3.21 | Cytotoxicity (Neutral Red Uptake) (Caco-2 cells): considered safe | Cytotoxicity (Neutral Red Uptake) (T84 cells): considered safe | Growth of the tested bacteria [1]: not significantly affected | Propionate in the caecum (GC-FID) (caecal microbiota): significantly increased | L2 FC Butyricicoccus, 0.1 vs 0 (jejunal microbiota; [2]): -2.02 | L2 FC Curtobacterium, 0.1 vs 0 (jejunal microbiota; [2]): -2.73 | L2 FC Gordonibacter, 0.1 vs 0 (jejunal microbiota; [2]): -2.71 | Mean relative abundance (%) Butyricicoccus (jejunal microbiota; [3]): 0.22% | Mean relative abundance (%) Curtobacterium (jejunal microbiota; [3]): 0.01% | Mean relative abundance (%) Gordonibacter (jejunal microbiota; [3]): 0.01% | Mean relative abundance of Bacillaceae (jejunal microbiota; [3]): 0.03% | Mean relative abundance of Burkholderiaceae (jejunal microbiota; [3]): 6.47% | Mean relative abundance of Peptostreptococcaceae (jejunal microbiota; [3]): 6.37% | Mean relative abundance of Pseudomonadaceae (jejunal microbiota; [3]): 1.71% | Mean relative abundance of Ruminococcaceae (jejunal microbiota; [3]): 3.73% | Mean relative abundance of uncultured bacterium family (Tenericutes, Mollicutes RF39) (jejunal microbiota; [3]): 0.01% | L2FC of LinDA-normalized abundance of Bacillaceae (jejunal microbiota; 0.1 vs 0 g berberine/kg feed): 3.45 | L2FC of LinDA-normalized abundance of Burkholderiaceae (jejunal microbiota; 0.1 vs 0 g berberine/kg feed): 3.82 | L2FC of LinDA-normalized abundance of Peptostreptococcaceae (jejunal microbiota; 0.1 vs 0 g berberine/kg feed): 3.90 | L2FC of LinDA-normalized abundance of Pseudomonadaceae (jejunal microbiota; 0.1 vs 0 g berberine/kg feed): 3.67 | L2FC of LinDA-normalized abundance of Ruminococcaceae (jejunal microbiota; 0.1 vs 0 g berberine/kg feed): 2.19 | L2FC of LinDA-normalized abundance of uncultured bacterium family (Tenericutes, Mollicutes RF39) (jejunal microbiota; 0.1 vs 0 g berberine/kg feed): 2.35 | L2 FC Butyricicoccus, 0.5 vs 0 (jejunal microbiota; [4]): -0.78 | L2 FC Curtobacterium, 0.5 vs 0 (jejunal microbiota; [4]): -1.13 | L2 FC Gordonibacter, 0.5 vs 0 (jejunal microbiota; [4]): -2.33 | Mean relative abundance (%) Butyricicoccus (jejunal microbiota; [5]): 0.34% | Mean relative abundance (%) Curtobacterium (jejunal microbiota; [5]): 0.03% | Mean relative abundance (%) Gordonibacter (jejunal microbiota; [5]): 0.00% | Mean relative abundance of Bacillaceae (jejunal microbiota; [5]): 0.04% | Mean relative abundance of Burkholderiaceae (jejunal microbiota; [5]): 5.60% | Mean relative abundance of Peptostreptococcaceae (jejunal microbiota; [5]): 0.52% | Mean relative abundance of Pseudomonadaceae (jejunal microbiota; [5]): 0.35% | Mean relative abundance of Ruminococcaceae (jejunal microbiota; [5]): 4.52% | Mean relative abundance of uncultured bacterium family (Tenericutes, Mollicutes RF39) (jejunal microbiota; [5]): 0.02% | L2FC of LinDA-normalized abundance of Bacillaceae (jejunal microbiota; 0.5 vs 0 g berberine/kg feed): 1.43 | L2FC of LinDA-normalized abundance of Burkholderiaceae (jejunal microbiota; 0.5 vs 0 g berberine/kg feed): 0.67 | L2FC of LinDA-normalized abundance of Peptostreptococcaceae (jejunal microbiota; 0.5 vs 0 g berberine/kg feed): -1.12 | L2FC of LinDA-normalized abundance of Pseudomonadaceae (jejunal microbiota; 0.5 vs 0 g berberine/kg feed): 0.14 | L2FC of LinDA-normalized abundance of Ruminococcaceae (jejunal microbiota; 0.5 vs 0 g berberine/kg feed): -0.14 | L2FC of LinDA-normalized abundance of uncultured bacterium family (Tenericutes, Mollicutes RF39) (jejunal microbiota; 0.5 vs 0 g berberine/kg feed): 0.60 | L2 FC Butyricicoccus, 1 vs 0 (jejunal microbiota; [6]): -0.38 | L2 FC Curtobacterium, 1 vs 0 (jejunal microbiota; [6]): -2.09 | L2 FC Gordonibacter, 1 vs 0 (jejunal microbiota; [6]): -1.79 | Mean relative abundance (%) Butyricicoccus (jejunal microbiota; 1 g berberine/kg feed, 21 days): 0.84% | Mean relative abundance (%) Curtobacterium (jejunal microbiota; 1 g berberine/kg feed, 21 days): 0.06% | Mean relative abundance (%) Gordonibacter (jejunal microbiota; 1 g berberine/kg feed, 21 days): 0.02% | Mean relative abundance of Bacillaceae (jejunal microbiota; 1 g berberine/kg feed, 21 days): 0.04% | Mean relative abundance of Burkholderiaceae (jejunal microbiota; 1 g berberine/kg feed, 21 days): 3.55% | Mean relative abundance of Peptostreptococcaceae (jejunal microbiota; 1 g berberine/kg feed, 21 days): 0.26% | Mean relative abundance of Pseudomonadaceae (jejunal microbiota; 1 g berberine/kg feed, 21 days): 0.35% | Mean relative abundance of Ruminococcaceae (jejunal microbiota; 1 g berberine/kg feed, 21 days): 10.54% | Mean relative abundance of uncultured bacterium family (Tenericutes, Mollicutes RF39) (jejunal microbiota; 1 g berberine/kg feed, 21 days): 0.00% | L2FC of LinDA-normalized abundance of Bacillaceae (jejunal microbiota; 1 vs 0 g berberine/kg feed): 0.80 | L2FC of LinDA-normalized abundance of Burkholderiaceae (jejunal microbiota; 1 vs 0 g berberine/kg feed): 1.37 | L2FC of LinDA-normalized abundance of Peptostreptococcaceae (jejunal microbiota; 1 vs 0 g berberine/kg feed): -3.21 | L2FC of LinDA-normalized abundance of Pseudomonadaceae (jejunal microbiota; 1 vs 0 g berberine/kg feed): 1.01 | L2FC of LinDA-normalized abundance of Ruminococcaceae (jejunal microbiota; 1 vs 0 g berberine/kg feed): 1.51 | L2FC of LinDA-normalized abundance of uncultured bacterium family (Tenericutes, Mollicutes RF39) (jejunal microbiota; 1 vs 0 g berberine/kg feed): 0.00 | Abundance of phylum Actinobacteria (jejunal microbiota; high dose (1 g/kg feed), p = 0.021): reduction | Abundance of phylum Actinobacteria (jejunal microbiota; low dose (0.1 g/kg feed), p < 0.001): reduction

From PMC10733463, “Berberine-microbiota interplay: orchestrating gut health through modulation of the gut microbiota and metabolic transformation into bioactive metabolites” (Frontiers in Pharmacology, 2023)
